Test results published in patent publication US11819510B2, “Food composition for ameliorating cerebrovascular diseases containing 2′- fucosyllactose and pharmaceutical composition for preventing or treating cerebrovascular diseases containing 2′-fucosyllactose” (Advanced Protein Technologies Corp., priority 2020, dated 2023).

How the values were obtained:
platelet αIIbβ3 integrin = test: Flow cytometry of platelet αIIbβ3 integrin activation after CRP activation; format: cell-based, mouse; conditions: 300 to 1,000 μM, concentration-dependent; 0.15 μg/ml CRP 5 minutes; vs vehicle; FIG. 3B
Protocol: (§1) Platelets were collected from the abdominal vein of mice (6-8 weeks of age) using a syringe pretreated with a citrate-dextrose solution (ACD, Sigma). After centrifugation at 300×g at room temperature for 20 minutes to obtain platelet-rich plasma (PRP), 0.5 μM PGE1 was added to the plasma isolated from red blood cells, followed by re-centrifugation at 700×g for 4 minutes. The precipitated platelets were washed with HEPES-Tyrode buffer (5 mM HEPES/NaOH, pH 7.3, 5 mM glucose, 136 mM NaCl, 12 mM NaHCO3, 2.7 mM KCl) containing 10% ACD, followed by centrifugation at 700×g for 5 min. The precipitated platelets were adjusted to a concentration of 3×10^8 cells/mL in HEPES-Tyrode buffer and used in this experiment.
(§2) The activity of each of platelet P-selectin and αIIbβ3, which are known biomarkers of platelet activity, was measured using a flow cytometer (Gallios, Beckman Coulter). Mouse platelets were pretreated with a vehicle (distilled water), 1,000 μM FOS and 3-fucosyllactose, and various concentrations (300 to 1,000 μM) of 2′-fucosyllactose at 37° C. for 15 minutes, and were then activated with 0.15 ug/ml CRP at 37° C. for 5 minutes, after which the activity thereof was measured using P-selectin and αIIbβ3 antibodies.
(§3) The mechanism of inhibition of platelet activation by HMOs was determined. […]

[1] = tested on: carotid artery thrombosis; test: FeCl3-induced carotid artery thrombosis mouse model, blood flow measurement; format: in vivo; conditions: 7 days, FeCl3 (10%) mouse model, vehicle 7.47 minutes
Protocol: Male C57BL/6 mice (6-8 weeks old) used in the experiment were purchased from Dooyeol Biotech Co., Ltd., were acclimatized for a predetermined period at 23±1° C. and 56% relative humidity while a general diet was provided thereto for 1 week, and were then used for the experiment. In the following, animal experiments were performed in accordance with the guide for the animal study protocols approved by the Korea Institute of Oriental Medicine Institutional Animal Care and Use Committee (approval number: 20-058). FeCl3 (10%) was used to establish a thrombosis-induced mouse model. Mice were orally administered with 2′-fucosyllactose (500, 1,000 mg/kg BW), 3-fucosyllactose (1,000 mg/kg BW), or ASA (100 mg/kg BW) for 7 days. 2 hours after the last administration, the mice were anesthetized with 2% isoflurane, the left carotid artery was isolated from each mouse, and filter paper (2 mm in diameter) soaked with FeCl3 (10%) was placed on the carotid artery for 2 minutes to induce thrombosis. Blood flow was measured using a blood flow meter (AD meter).

[2] = tested on: CRP-induced aggregation of mouse platelets; test: Platelet aggregation induced by CRP; format: cell-based; conditions: CRP 0.15 μg/ml; 2′-fucosyllactose 300 to 1,000 μM, FOS and 3-fucosyllactose 1,000 μM; pretreated 37° C. 15 minutes; vs vehicle; FIG. 2A
HepG2 cells = test: HMO cytotoxicity test (CCK assay); format: cell-based; conditions: 24 hours treatment, FIG. 4
Protocol: In this experimental example, the cytotoxicity of HMOs was evaluated by CCK assay (Oh, Y. C.; Jeong, Y. H.; Pak, M. E.; Go, Y., Banhasasim-Tang Attenuates Lipopolysaccharide-Induced Cognitive Impairment by Suppressing Neuroinflammation in Mice. Nutrients 2020, 12, (7)). No protocol for measuring cytotoxicity to platelets has been established, so HepG2 cells were pretreated with an HMO (2′-fucosyllactose or 3-fucosyllactose) in a concentration-dependent manner. After 24 hours, each well was treated with a cell-counting kit solution (Dojindo Molecular Technologies, Inc.), and further incubated for 1 hour, and then absorbance was measured at a wavelength of 450 nm using a microplate reader.

[3] = tested on: thromboxane A2 analogue-induced aggregation of mouse platelets; test: Platelet aggregation induced by thromboxane A2 analogue (U46619); format: cell-based; conditions: thromboxane A2 analogue 3 μM; pretreated 37° C. 15 minutes; vs vehicle; FIG. 2D
Protocol: as §1
(§4) Mouse platelets immersed in HEPES-Tyrode buffer at a concentration of 3×10^8 cells/mL were pre-treated with a vehicle (distilled water), 1,000 μM FOS, 3′-fucosyllactose, and various concentrations (300 to 1,000 μM) of 2′-fucosyllactose at 37° C. for 15 minutes, and were then activated awith CRP, collagen, thrombin, and thromboxane A2 analogues in a platelet aggregation system. Platelet aggregation was induced at a rate of 1,000 rpm at 37° C. and then measured in a platelet aggregation meter (Chrono-log Corp, Havertown, PA). […]

[4] = tested on: collagen-induced aggregation of mouse platelets; test: Platelet aggregation induced by collagen; format: cell-based; conditions: collagen 0.5 μg/ml; 2′-fucosyllactose 300 to 1,000 μM, FOS and 3-fucosyllactose 1,000 μM; pretreated 37° C. 15 minutes; vs vehicle; FIG. 2B
[5] = tested on: thrombin-induced aggregation of mouse platelets; test: Platelet aggregation induced by thrombin; format: cell-based; conditions: thrombin 0.025 U/ml; pretreated 37° C. 15 minutes; vs vehicle; FIG. 2C
Protocol: as §1, §4

[6] = tested on: P-selectin of mouse platelet α-granule; test: Flow cytometry of platelet P-selectin exposure after CRP activation; format: cell-based; conditions: 300 to 1,000 μM, concentration-dependent; 0.15 μg/ml CRP 5 minutes; vs vehicle; FIG. 3A
Protocol: as §1, §2, §3

Compound	inhibition of activation of platelet αIIbβ3 integrin (platelet αIIbβ3 integrin)	average carotid artery occlusion time ([1]; 500 mg/kg BW oral) [min]	average carotid artery occlusion time ([1]; 1,000 mg/kg BW oral) [min]	inhibition of platelet aggregation induced by CRP [2]	cell death of HepG2 (cell viability, CCK assay) (HepG2 cells)	inhibition of platelet aggregation induced by thromboxane A2 analogue [3]	inhibition of platelet aggregation induced by collagen [4]	inhibition of platelet aggregation induced by thrombin [5]	inhibition of activation of P-selectin of mouse platelet α-granule [6]	carotid artery occlusion time ([1]; 100 mg/kg BW oral, positive control) [min]
2′-fucosyllactose	significantly inhibit	11.79	14.52	significantly inhibited	not observed	did not exhibit an inhibitory effect	significantly inhibited	did not exhibit an inhibitory effect	significantly inhibit	–
3-fucosyllactose [reference compound]	–	–	8.18	not significantly inhibited	not observed	–	not significantly inhibited	–	–	–
CC(=O)Oc1ccccc1C(=O)O [aspirin, reference compound]	–	–	–	–	–	–	–	–	–	18.05
fructooligosaccharide [FOS]	–	–	–	not significantly inhibited	–	–	not significantly inhibited	–	–	–
